Measured values as given in PubChem BioAssay AID248 (DTP/NCI, 2004).
Several values for one entry are separate records, joined by “and”; a condition that tells them apart may be missing. Equal values may be shown once. Toxic doses and inconclusive results are not listed. Cut-off read from the data, not from the text of the source: active = T/C of 150% or more; inactive = T/C below 125%.

Test system: L1210 leukemia ip in BDF1 mice, survival T/C
Assay: NCI In Vivo Anticancer Drug Screen. Data for tumor model L1210 Leukemia (intraperitoneal) in B6D2F1 (BDF1) mice
Details: higher = longer survival
Outline: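 Mice bearing the transplanted tumor received compound or vehicle. Survival of the treated group was divided by that of the vehicle-treated control group to give the ratio.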

[1] = endpoint: mean survival time, dose: 100.0 mg/kg/injection, schedule: Q04DX003 (ip), vehicle: saline with Tween-80
[2] = endpoint: mean survival time, dose: 200.0 mg/kg/injection, schedule: Q04DX003 (ip), vehicle: saline with Tween-80
[3] = endpoint: mean survival time, dose: 400.0 mg/kg/injection, schedule: Q04DX003 (ip), vehicle: saline with Tween-80
[4] = endpoint: mean survival time, dose: 100.0 mg/kg/injection, schedule: Q01DX001 (ip), vehicle: Klucel (hydroxypropylcellulose) (HPC)
[5] = endpoint: mean survival time, dose: 200.0 mg/kg/injection, schedule: Q01DX001 (ip), vehicle: Klucel (hydroxypropylcellulose) (HPC)
[6] = endpoint: mean survival time, dose: 400.0 mg/kg/injection, schedule: Q01DX001 (ip), vehicle: Klucel (hydroxypropylcellulose) (HPC)
[7] = endpoint: mean survival time, dose: 50.0 mg/kg/injection, schedule: Q01DX001 (ip), vehicle: saline
[8] = endpoint: mean survival time, dose: 100.0 mg/kg/injection, schedule: Q01DX001 (ip), vehicle: saline
[9] = endpoint: mean survival time, dose: 200.0 mg/kg/injection, schedule: Q01DX001 (ip), vehicle: saline
[10] = endpoint: mean survival time, dose: 400.0 mg/kg/injection, schedule: Q01DX001 (ip), vehicle: saline
[11] = endpoint: mean survival time, dose: 100.0 mg/kg/injection, schedule: Q01DX009 (ip), vehicle: Klucel (hydroxypropylcellulose) (HPC)
[12] = endpoint: mean survival time, dose: 100.0 mg/kg/injection, schedule: Q01DX009 (ip), vehicle: saline with Tween-80

Measured: T/C

CCC1CN2C(=N1)c1ccccc1-c1cc(Br)ccc12 (stereo unspecified)
inactive: endpoint: mean survival time, dose: 2.5 mg/kg/injection, schedule: Q01DX009 (ip), vehicle: Klucel (hydroxypropylcellulose) (HPC) 104 % of control | endpoint: mean survival time, dose: 2.5 mg/kg/injection, schedule: Q04DX003 (ip), vehicle: Klucel (hydroxypropylcellulose) (HPC) 100 % of control | endpoint: mean survival time, dose: 5.0 mg/kg/injection, schedule: Q01DX009 (ip), vehicle: Klucel (hydroxypropylcellulose) (HPC) 98 % of control | endpoint: mean survival time, dose: 5.0 mg/kg/injection, schedule: Q04DX003 (ip), vehicle: Klucel (hydroxypropylcellulose) (HPC) 100 % of control | endpoint: mean survival time, dose: 10.0 mg/kg/injection, schedule: Q01DX009 (ip), vehicle: Klucel (hydroxypropylcellulose) (HPC) 116 % of control | endpoint: mean survival time, dose: 10.0 mg/kg/injection, schedule: Q04DX003 (ip), vehicle: Klucel (hydroxypropylcellulose) (HPC) 96 % of control

CC12CCC(CC1C(=O)O)C2 (stereo unspecified)
inactive: [1] 96 % of control | [2] 94 % of control | [3] 98 % of control

Clc1ncn[nH]1
inactive: endpoint: mean survival time, dose: 100.0 mg/kg/injection, schedule: Q04DX003 (ip), vehicle: saline sonified 101 % of control | endpoint: mean survival time, dose: 200.0 mg/kg/injection, schedule: Q04DX003 (ip), vehicle: saline sonified 106 % of control | endpoint: mean survival time, dose: 400.0 mg/kg/injection, schedule: Q04DX003 (ip), vehicle: saline sonified 100 % of control

Cc1ccc(S(=O)(=O)N/N=C(\CSc2ccc([N+](=O)[O-])cc2)c2ccccc2)cc1
inactive: [1] 87 % of control | [2] 92 % of control | [3] 88 % of control

O=C(Nc1cccc(C(F)(F)F)c1)Nc1ccccc1C(F)(F)F
inactive: endpoint: mean survival time, dose: 100.0 mg/kg/injection, schedule: Q01DX009 (ip), vehicle: gum acacia 101 % of control | endpoint: mean survival time, dose: 200.0 mg/kg/injection, schedule: Q01DX009 (ip), vehicle: gum acacia 101 % of control | endpoint: mean survival time, dose: 400.0 mg/kg/injection, schedule: Q01DX009 (ip), vehicle: gum acacia 104 % of control

CC(C)(C)OC(=O)COc1ccc(NC(=O)COc2ccc(Cl)c(Cl)c2)cc1
inactive: [4] 101 % of control | [5] 101 % of control | [6] 101 % of control

C[N+](C)(CCc1ccccc1)CC(O)COc1ccccc1 (stereo unspecified)
inactive: endpoint: mean survival time, dose: 4.5 mg/kg/injection, schedule: Q01DX009 (ip), vehicle: Klucel (hydroxypropylcellulose) (HPC) 89 % of control | endpoint: mean survival time, dose: 9.0 mg/kg/injection, schedule: Q01DX009 (ip), vehicle: Klucel (hydroxypropylcellulose) (HPC) 92 % of control | endpoint: mean survival time, dose: 18.0 mg/kg/injection, schedule: Q01DX009 (ip), vehicle: Klucel (hydroxypropylcellulose) (HPC) 94 % of control | endpoint: mean survival time, dose: 18.75 mg/kg/injection, schedule: Q04DX003 (ip), vehicle: Klucel (hydroxypropylcellulose) (HPC) 98 % of control

Cc1cn(C2CC(O)C(CO)O2)c(=O)n(Cc2ccccc2)c1=O (stereo unspecified)
inactive: [7] 108 % of control | [8] 108 % of control | [9] 98 % of control | [10] 108 % of control

C#CC1(NC(=S)NC(=O)c2ccccc2)CCCCC1
inactive: endpoint: mean survival time, dose: 25.0 mg/kg/injection, schedule: Q01DX009 (ip), vehicle: Klucel (hydroxypropylcellulose) (HPC) 93 % of control | endpoint: mean survival time, dose: 50.0 mg/kg/injection, schedule: Q01DX009 (ip), vehicle: Klucel (hydroxypropylcellulose) (HPC) 94 % of control | [11] 94 % of control and 88 % of control

CCO/C(C)=N/OC(=O)c1cc(Cl)ccc1Cl
inactive: endpoint: mean survival time, dose: 100.0 mg/kg/injection, schedule: Q04DX002 (ip), vehicle: Klucel (hydroxypropylcellulose) (HPC) 98 % of control | endpoint: mean survival time, dose: 200.0 mg/kg/injection, schedule: Q04DX002 (ip), vehicle: Klucel (hydroxypropylcellulose) (HPC) 110 % of control | endpoint: mean survival time, dose: 400.0 mg/kg/injection, schedule: Q04DX002 (ip), vehicle: Klucel (hydroxypropylcellulose) (HPC) 113 % of control

N#C/C(=C\c1ccc([N+](=O)[O-])o1)[N+](=O)[O-]
inactive: endpoint: mean survival time, dose: 25.0 mg/kg/injection, schedule: Q01DX009 (ip), vehicle: saline with Tween-80 110 % of control | endpoint: mean survival time, dose: 50.0 mg/kg/injection, schedule: Q01DX009 (ip), vehicle: saline with Tween-80 96 % of control | [12] 104 % of control | [1] 106 % of control

COc1ccc(C=Nc2ccccc2C(=O)O)cc1
inactive: endpoint: mean survival time, dose: 100.0 mg/kg/injection, schedule: Q01DX001 (ip), vehicle: saline with Tween-80 108 % of control | endpoint: mean survival time, dose: 200.0 mg/kg/injection, schedule: Q01DX001 (ip), vehicle: saline with Tween-80 105 % of control | endpoint: mean survival time, dose: 400.0 mg/kg/injection, schedule: Q01DX001 (ip), vehicle: saline with Tween-80 93 % of control

CCOC(=O)/C=C(\C)Nc1ccc(NC(C)=O)cc1
inactive: endpoint: mean survival time, dose: 50.0 mg/kg/injection, schedule: Q01DX009 (ip), vehicle: water 107 % of control | endpoint: mean survival time, dose: 100.0 mg/kg/injection, schedule: Q01DX009 (ip), vehicle: water 121 % of control | endpoint: mean survival time, dose: 100.0 mg/kg/injection, schedule: Q04DX003 (ip), vehicle: water 96 % of control | endpoint: mean survival time, dose: 200.0 mg/kg/injection, schedule: Q01DX009 (ip), vehicle: water 98 % of control | endpoint: mean survival time, dose: 200.0 mg/kg/injection, schedule: Q04DX003 (ip), vehicle: water 96 % of control | endpoint: mean survival time, dose: 400.0 mg/kg/injection, schedule: Q01DX009 (ip), vehicle: water 100 % of control | endpoint: mean survival time, dose: 400.0 mg/kg/injection, schedule: Q04DX003 (ip), vehicle: water 101 % of control

CC(NC(=O)CNC(=O)c1cnc2ccccc2n1)C(=O)O (stereo unspecified)
inactive: [8] 100 % of control | [9] 101 % of control | [10] 94 % of control

O=C1CCCC(=O)NNC(=O)Nc2ccccc2NC(=O)NN1
inactive: [7] 102 % of control | [8] 90 % of control | [9] 96 % of control | [10] 96 % of control

CCC(O)C(CC(C)N(C)C)(c1ccccc1)c1ccccc1 (stereo unspecified)
inactive: [8] 108 % of control

CC1(C)COC(c2ccccc2Br)=N1
inactive: [11] 107 % of control | endpoint: mean survival time, dose: 100.0 mg/kg/injection, schedule: Q04DX003 (ip), vehicle: Klucel (hydroxypropylcellulose) (HPC) 104 % of control and 105 % of control | endpoint: mean survival time, dose: 200.0 mg/kg/injection, schedule: Q01DX009 (ip), vehicle: Klucel (hydroxypropylcellulose) (HPC) 104 % of control | endpoint: mean survival time, dose: 200.0 mg/kg/injection, schedule: Q04DX003 (ip), vehicle: Klucel (hydroxypropylcellulose) (HPC) 97 % of control and 105 % of control | endpoint: mean survival time, dose: 400.0 mg/kg/injection, schedule: Q01DX009 (ip), vehicle: Klucel (hydroxypropylcellulose) (HPC) 93 % of control | endpoint: mean survival time, dose: 400.0 mg/kg/injection, schedule: Q04DX003 (ip), vehicle: Klucel (hydroxypropylcellulose) (HPC) 93 % of control and 100 % of control

COC(=O)C(C)C(=O)O (stereo unspecified)
inactive: endpoint: mean survival time, dose: 100.0 mg/kg/injection, schedule: Q04DX002 (ip), vehicle: saline 90 % of control | endpoint: mean survival time, dose: 200.0 mg/kg/injection, schedule: Q04DX002 (ip), vehicle: saline 97 % of control | endpoint: mean survival time, dose: 400.0 mg/kg/injection, schedule: Q04DX002 (ip), vehicle: saline 90 % of control

O=C1OCCN1c1ccccc1
inactive: [4] 90 % of control | [12] 93 % of control | [1] 101 % of control | [5] 87 % of control | endpoint: mean survival time, dose: 200.0 mg/kg/injection, schedule: Q01DX009 (ip), vehicle: saline with Tween-80 90 % of control | [2] 113 % of control | [6] 100 % of control | endpoint: mean survival time, dose: 400.0 mg/kg/injection, schedule: Q01DX009 (ip), vehicle: saline with Tween-80 93 % of control | [3] 95 % of control

[I][Hg][CH2]C1COC([CH2][Hg][I])CO1 (stereo unspecified)
inactive: endpoint: mean survival time, dose: 6.25 mg/kg/injection, schedule: Q01DX010 (ip), vehicle: saline 98 % of control | endpoint: mean survival time, dose: 12.5 mg/kg/injection, schedule: Q01DX009 (ip), vehicle: saline 97 % of control and 100 % of control | endpoint: mean survival time, dose: 12.5 mg/kg/injection, schedule: Q01DX010 (ip), vehicle: saline 106 % of control | endpoint: mean survival time, dose: 25.0 mg/kg/injection, schedule: Q01DX009 (ip), vehicle: saline 96 % of control and 101 % of control | endpoint: mean survival time, dose: 25.0 mg/kg/injection, schedule: Q01DX010 (ip), vehicle: saline 110 % of control | endpoint: mean survival time, dose: 50.0 mg/kg/injection, schedule: Q01DX009 (ip), vehicle: saline 93 % of control and 92 % of control | endpoint: mean survival time, dose: 50.0 mg/kg/injection, schedule: Q01DX010 (ip), vehicle: saline 97 % of control | endpoint: mean survival time, dose: 100.0 mg/kg/injection, schedule: Q01DX009 (ip), vehicle: saline 93 % of control and 97 % of control | endpoint: median survival time, dose: 12.5 mg/kg/injection, schedule: Q01DX009 (ip), vehicle: saline 93 % of control | endpoint: median survival time, dose: 25.0 mg/kg/injection, schedule: Q01DX009 (ip), vehicle: saline 93 % of control | endpoint: median survival time, dose: 50.0 mg/kg/injection, schedule: Q01DX009 (ip), vehicle: saline 93 % of control
